Assay results as given in ChEMBL document CHEMBL5729664, “Substituted pyridine derivatives as SARM1 inhibitors” (2023).

Experiment: Biological Assay: Each reaction was run at a volume of 20 μL containing 50 μM compound (dissolved in DMSO; final concentration of DMSO is 1% v/v), 40 nM human SARM1 (50-724), 0.3 mM NMN, 20 μM NAD, 1 mM TCEP, 25 mM HEPES pH 7.4, 10 mM KCl and 10 mM MgCl2. The reaction was incubated at room temperature for 60 minutes and quenched with 20 μL of 0.4% formic acid. The samples were run on Agilent HPLC 1260 Infinity II with Synergi 2.5 μM Fusion-RP 100 Å (100×3.0 mm) LC column from Phenomenex. Total run time for each sample was 4 minutes. The run was isocratic with 1.5% methanol in 40 mM ammonium acetate pH 6.0. Samples were run at a flow rate of 0.8 ml/min at 55° C. Peak areas of NAD and NAM were determined using OpenLAB CDS (Chem Station edition) software. For dose-response, the compound was diluted serially 1:3 in DMSO and added to the reaction starting at a final compound concentration of 100 μM in 1% DMSO.

Compound | IC50
NC(c1nc(Cc2ccncc2)cs1)C(F)(F)F (stereo not drawn) | in the range around 55 µM
O[C@@H](c1nc(Cc2ccncc2)c[nH]1)c1cncs1 | < 1 µM
OC(c1ccccn1)c1ncc(Cc2ccncc2)[nH]1 (stereo not drawn) | in the range around 5.5 µM
CN(C)C(c1ncc(Cc2ccncc2)[nH]1)C(F)(F)F (stereo not drawn) | in the range around 55 µM
OC(c1ncc(Cc2ccncc2)[nH]1)(c1cncs1)C(F)(F)F (stereo not drawn) | in the range around 55 µM
CN[C@@H](c1ncc(Cc2ccncc2)[nH]1)C(F)(F)F | in the range around 5.5 µM
O[C@H](C1N=CC(Cc2ccncc2F)=N1)C(F)(F)F (stereo partly drawn) | in the range around 5.5 µM
OC(C1N=CC(Cc2ccncc2F)=N1)C(F)(F)F (stereo not drawn) | < 1 µM
O[C@H](c1ncc(Cc2ccncc2)[nH]1)c1nccs1 | in the range around 5.5 µM
CNC(c1ncc(Cc2ccncc2)[nH]1)C(F)(F)F (stereo not drawn) | in the range around 5.5 µM
CC(O)(c1nc(Cc2ccncc2)c[nH]1)C(F)(F)F (stereo not drawn) | in the range around 5.5 µM
CC(c1ccncc1)c1ccc(CC(F)(F)F)[nH]1 (stereo not drawn) | in the range around 5.5 µM
COC(c1ncc(Cc2ccncc2)[nH]1)C(F)(F)F (stereo not drawn) | in the range around 5.5 µM
Cc1cnccc1Cc1cnc([C@@H](O)c2cncs2)[nH]1 (single isomer, unassigned) | in the range around 55 µM

The remaining lines, values ahead:

IC50 | Compound
< 1 µM | N[C@@H](c1nc(Cc2ccncc2)c[nH]1)C(F)(F)F
< 1 µM | OC(c1nc(Cc2ccncc2Cl)c[nH]1)C(F)(F)F (stereo not drawn)
in the range around 55 µM | C[C@@H](c1ccncc1)c1c[nH]c([C@H](O)C(F)(F)F)n1
< 1 µM | O[C@@H](c1ncc(Cc2ccncc2)[nH]1)C(F)(F)F
< 1 µM | Cc1cnccc1Cc1c[nH]c([C@H](O)C(F)(F)F)n1
< 1 µM | O[C@H](c1ncc(Cc2ccncc2)[nH]1)C(F)(F)F
< 1 µM | C[C@@H](c1ccncc1)c1c[nH]c([C@@H](O)C(F)(F)F)n1
< 1 µM | CC(c1ccncc1)c1c[nH]c(CC(F)(F)F)n1 (stereo not drawn)
< 1 µM | C[C@H](c1ccncc1)c1c[nH]c(CC(F)(F)F)n1
